Test results as given in ChEMBL document CHEMBL1137339, “Improved therapeutic efficacy of doxorubicin through conjugation with a novel peptide drug delivery technology (Vectocell)” (J Med Chem, 2006).
Non-standard residues stand in square brackets, D forms with d. Residues, ends and D or L forms follow the SMILES beside them. ξ: configuration not given here. *: point of attachment. X1 = COc1cccc2c1C(=O)c1c(O)c3c(c(O)c1C2=O)C[C@@](O)(C(=O)COC(=O)CCCN1C(=O)CC(*)C1=O)C[C@@H]3O[C@H]1C[C@H](N)[C@H](O)[C@H](C)O1; X4 = COc1cccc2c1C(=O)c1c(O)c3c(c(O)c1C2=O)C[C@@](O)(C(=O)CO)C[C@@H]3O[C@H]1C[C@H](NC(=O)CCCN2C(=O)CC(*)C2=O)[C@H](O)[C@H](C)O1; ξC = NC(CS)C(=O)O

Tests used:
NCI/ADR-RES [1] = test: Cytotoxicity against doxorubicin-resistant MCF7/Adr cell line in presence of verapamil by WST1 assay; assay type: functional, cell-based; conditions: Homo sapiens
HCT-116 [2] = test: Cytotoxicity against doxorubicin-sensitive HCT116 cell line by WST1 assay; assay type: functional, cell-based; conditions: Homo sapiens
MES-SA/Dx5 [3] = test: Cytotoxicity against doxorubicin-resistant MES-SA/dx5 cell line in presence of verapamil by WST1 assay; assay type: functional, cell-based; conditions: Homo sapiens
MES-SA/Dx5 [4] = test: Cytotoxicity against MES-SA/dx5 cell line by WST1 assay; assay type: functional, cell-based; conditions: Homo sapiens
HCT-15 [5] = test: Cytotoxicity against HCT15 cell line by WST1 assay; assay type: functional, cell-based; conditions: Homo sapiens
MCF7 = test: Cytotoxicity against doxorubicin-sensitive MCF7/6 cell line by WST1 assay; assay type: functional, cell-based; conditions: Homo sapiens
HCT-116 [6] = test: Cytotoxicity against doxorubicin-sensitive HCT116 cell line in presence of verapamil by WST1 assay; assay type: functional, cell-based; conditions: Homo sapiens
HCT-15 [7] = test: Cytotoxicity against doxorubicin-resistant HCT15 cell line in presence of verapamil by WST1 assay; assay type: functional, cell-based; conditions: Homo sapiens
NCI/ADR-RES [8] = test: Cytotoxicity against doxorubicin-resistant MCF7/Adr cell line by WST1 assay; assay type: functional, cell-based; conditions: Homo sapiens
MDA-MB-231 [9] = test: Cytotoxicity against MDA-MB-231 cell line xenografted in NMRI nu/nu mouse at 8 umol/kg relative to control; assay type: functional, Homo sapiens
MDA-MB-231 [10] = test: Cytotoxicity against MDA-MB-231 cell line xenografted in NMRI nu/nu mouse at 6 umol/kg relative to control; assay type: functional, Homo sapiens
HCT-116 [11] = test: Cytotoxicity against HCT116 cell line xenografted in NMRI nu/nu mouse at 15 umol/kg relative to control; assay type: functional, Homo sapiens
MDA-MB-231 [12] = test: Cytotoxicity against MDA-MB-231 cell line xenografted in NMRI nu/nu mouse at 10 umol/kg relative to control; assay type: functional, Homo sapiens

Structure (SMILES)	IC50 (HCT-116 [2]) [µM]	IC50 (MCF7) [µM]	IC50 (NCI/ADR-RES [8]) [µM]	Activity (HCT-116 [11]) [%]	other results
COc1cccc2c1C(=O)c1c(O)c3c(c(O)c1C2=O)C[C@@](O)(C(=O)COC(=O)CCCN1C(=O)CC(SC[C@H](N)C(=O)N[C@H](C(=O)N[C@@H](CCCCN)C(=O)N[C@@H](CCCN=C(N)N)C(=O)NCC(=O)N[C@@H](CC(C)C)C(=O)N[C@@H](CCCCN)C(=O)N[C@@H](CC(C)C)C(=O)N[C@@H](CCCN=C(N)N)C(=O)N[C@@H](Cc2c[nH]cn2)C(=O)N[C@H](C(=O)N[C@@H](CCCN=C(N)N)C(=O)N2CCC[C@H]2C(=O)N[C@@H](CCCN=C(N)N)C(=O)N[C@H](C(=O)N[C@H](C(=O)N[C@@H](CCCN=C(N)N)C(=O)N[C@@H](CCSC)C(=O)N[C@@H](CC(=O)O)C(=O)N[C@H](C(=O)O)C(C)C)[C@@H](C)O)C(C)C)C(C)C)C(C)C)C1=O)C[C@@H]3O[C@H]1C[C@H](N)[C@H](O)[C@H](C)O1 (stereo not given in full) (H-C(X1)VKRGLKLRHVRPRVTRMDV-OH)	6	29	133		IC50 (NCI/ADR-RES [1]): 52 µM; IC50 (MES-SA/Dx5 [3]): 22 µM; IC50 (MES-SA/Dx5 [4]): 81 µM; IC50 (HCT-15 [5]): 50 µM; IC50 (HCT-116 [6]): 4 µM; IC50 (HCT-15 [7]): 11 µM
COc1cccc2c1C(=O)c1c(O)c3c(c(O)c1C2=O)C[C@@](O)(C(=O)COC(=O)CCCN1C(=O)CC(SC[C@H](N)C(=O)N[C@H](C(=O)N[C@@H](CCCCN)C(=O)N[C@@H](CCCN=C(N)N)C(=O)NCC(=O)N[C@@H](CC(C)C)C(=O)N[C@@H](CCCCN)C(=O)N[C@@H](CC(C)C)C(=O)N[C@@H](CCCN=C(N)N)C(=O)N[C@@H](Cc2c[nH]cn2)C(=O)N[C@H](C(=O)N[C@@H](CCCN=C(N)N)C(=O)N2CCC[C@H]2C(=O)N[C@@H](CCCN=C(N)N)C(=O)N[C@H](C(=O)N[C@H](C(=O)N[C@@H](CCCN=C(N)N)C(=O)N[C@@H](CCSC)C(=O)N[C@@H](CC(=O)O)C(=O)N[C@H](C(=O)O)C(C)C)[C@@H](C)O)C(C)C)C(C)C)C(C)C)C1=O)C[C@@H]3O[C@H]1C[C@H](N)[C@H](O)[C@H](C)O1.O=C(O)C(F)(F)F (stereo not given in full) (H-C(X1)VKRGLKLRHVRPRVTRMDV-OH)				29.5	Activity (MDA-MB-231 [9]): 27.6%; Activity (MDA-MB-231 [10]): 43.4%; Activity (MDA-MB-231 [12]): 16.4%
COc1cccc2c1C(=O)c1c(O)c3c(c(O)c1C2=O)C[C@@](O)(C(=O)CO)C[C@@H]3O[C@H]1C[C@H](NC(=O)CCCN2C(=O)CC(SC[C@H](N)C(=O)N[C@H](C(=O)N[C@@H](CCCCN)C(=O)N[C@@H](CCCN=C(N)N)C(=O)NCC(=O)N[C@@H](CC(C)C)C(=O)N[C@@H](CCCCN)C(=O)N[C@@H](CC(C)C)C(=O)N[C@@H](CCCN=C(N)N)C(=O)N[C@@H](Cc3c[nH]cn3)C(=O)N[C@H](C(=O)N[C@@H](CCCN=C(N)N)C(=O)N3CCC[C@H]3C(=O)N[C@@H](CCCN=C(N)N)C(=O)N[C@H](C(=O)N[C@H](C(=O)N[C@@H](CCCN=C(N)N)C(=O)N[C@@H](CCSC)C(=O)N[C@@H](CC(=O)O)C(=O)N[C@H](C(=O)O)C(C)C)[C@@H](C)O)C(C)C)C(C)C)C(C)C)C2=O)[C@H](O)[C@H](C)O1 (stereo not given in full) (H-C(X4)VKRGLKLRHVRPRVTRMDV-OH)		108	500		
COc1cccc2c1C(=O)c1c(O)c3c(c(O)c1C2=O)C[C@@](O)(C(=O)CO)C[C@@H]3O[C@H]1C[C@H](NC(=O)CCCN2C(=O)CC(SC[C@H](N)C(=O)N[C@H](C(=O)N[C@@H](CCCCN)C(=O)N[C@@H](CCCN=C(N)N)C(=O)NCC(=O)N[C@@H](CC(C)C)C(=O)N[C@@H](CCCCN)C(=O)N[C@@H](CC(C)C)C(=O)N[C@@H](CCCN=C(N)N)C(=O)N[C@@H](Cc3c[nH]cn3)C(=O)N[C@H](C(=O)N[C@@H](CCCN=C(N)N)C(=O)N3CCC[C@H]3C(=O)N[C@@H](CCCN=C(N)N)C(=O)N[C@H](C(=O)N[C@H](C(=O)N[C@@H](CCCN=C(N)N)C(=O)N[C@@H](CCSC)C(=O)N[C@@H](CC(=O)O)C(=O)N[C@H](C(=O)O)C(C)C)[C@@H](C)O)C(C)C)C(C)C)C(C)C)C2=O)[C@H](O)[C@H](C)O1.O=C(O)C(F)(F)F (stereo not given in full) (H-C(X4)VKRGLKLRHVRPRVTRMDV-OH)				79.7	
COc1cccc2c1C(=O)c1c(O)c3c(c(O)c1C2=O)C[C@@](O)(C(=O)COC(=O)CCCN1C(=O)CC(SCC(N)C(=O)NCC(=O)N[C@@H](CCCCN)C(=O)N[C@@H](CCCN=C(N)N)C(=O)N[C@@H](CCCCN)C(=O)N[C@@H](CCCCN)C(=O)N[C@@H](CCCCN)C(=O)NCC(=O)N[C@@H](CCCCN)C(=O)N[C@@H](CC(C)C)C(=O)NCC(=O)N[C@@H](CCCCN)C(=O)N[C@@H](CCCCN)C(=O)N[C@@H](CCCN=C(N)N)C(=O)N2CCC[C@H]2C(=O)N[C@@H](CCCN=C(N)N)C(=O)N[C@@H](CO)C(=O)N[C@@H](CCCN=C(N)N)C(=O)N[C@@H](CS)C(=O)O)C1=O)C[C@@H]3O[C@H]1C[C@H](N)[C@H](O)[C@H](C)O1.O=C(O)C(F)(F)F (stereo not given in full) (H-[ξC](X1)GKRKKKGKLGKKRPRSRC-OH)	5	10	> 1000	34.1	
